Measurements taken from PubChem BioAssay (NCI).
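Growth conditions: 96-well plates. Treatment: test compound, 48 hours, 5 concentrations. Analysis: linear interpolation between bracketing concentrations; unreached endpoints set to highest concentration. At the GI50, growth is halved. At the TGI there is no net growth.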

Tests used:
Assay in all cases: NCI tumour cell line growth inhibition, 48 h
COLO 205 colon = test system: COLO 205 colon
SK-MEL-5 melanoma = test system: SK-MEL-5 melanoma
NCI-H460 lung = test system: NCI-H460 lung
HCT-15 colon = test system: HCT-15 colon
IGROV1 ovarian = test system: IGROV1 ovarian
CAKI-1 renal = test system: CAKI-1 renal
RPMI-8226 leukemia = test system: RPMI-8226 leukemia
SF-295 CNS = test system: SF-295 CNS
HCT-116 colon = test system: HCT-116 colon
TK-10 renal = test system: TK-10 renal

Structure (SMILES)	TGI (COLO 205 colon) [µM]	TGI (SK-MEL-5 melanoma) [µM]	TGI (NCI-H460 lung) [µM]	TGI (HCT-15 colon) [µM]	TGI (IGROV1 ovarian) [µM]	TGI (CAKI-1 renal) [µM]	TGI (RPMI-8226 leukemia) [µM]	TGI (SF-295 CNS) [µM]	TGI (HCT-116 colon) [µM]	TGI (TK-10 renal) [µM]	GI50 (COLO 205 colon) [µM]	GI50 (SK-MEL-5 melanoma) [µM]	GI50 (NCI-H460 lung) [µM]	GI50 (HCT-15 colon) [µM]	GI50 (IGROV1 ovarian) [µM]	GI50 (CAKI-1 renal) [µM]	GI50 (RPMI-8226 leukemia) [µM]	GI50 (SF-295 CNS) [µM]	GI50 (HCT-116 colon) [µM]	GI50 (TK-10 renal) [µM]
COc1cc(CNc2nc3ccc(C(F)(F)F)cc3nc2-c2ccccc2)cc(OC)c1OC	> 100	87	> 100	> 100	> 100	> 100	> 100	> 100	> 100	> 100	–	–	–	–	–	–	–	–	–	–
CC(C)Oc1ccc(C(=O)Cn2ccnc2)cc1-n1c(CN2CCN(C(=O)COc3ccc(Cl)cc3)CC2)nc2ccccc2c1=O	32.7	23.5	33.7	32.6	16.5	9.25	40.4	31.6	24.9	> 74.4	7.34	9.78	16.8	12.3	1	4.04	11.5	14.8	8.68	12.8
CC1(O)CCn2c(=O)c3cc4ccccc4cc3c(=O)n2C1O (stereo not given)	> 100	> 100	> 100	> 100	> 100	> 100	> 100	> 100	> 100	> 100	–	–	–	–	–	–	–	–	–	–
O=C(O)c1ccccc1C(=O)c1ccc2c(c1)Cc1ccccc1-2	> 100	> 100	> 100	> 100	> 100	> 100	> 100	> 100	> 100	> 100	–	–	–	–	–	–	–	–	–	–
CCOC(OC1=C(C#N)CCCC1)C(CC)[Se]c1ccccc1 (stereo not given)	40.6	33.5	34.2	33	74.1	> 100	50.1	98.7	28.6	> 100	–	–	–	–	–	–	–	–	–	–
OCc1ccc(N2CCOCC2)cc1Cl	> 68.1	> 100	> 100	> 100	32.6	> 100	> 100	> 100	> 100	11.4	25	> 91.2	30.9	> 100	6.73	> 100	> 84.4	28.2	28.6	2.94
C/C1=C\CC[C@@](C)(O)[C@@H]2C[C@H](CC/C(C)=C/CC1)C1(CC1)C(=O)O2	36.4	35	> 100	> 100	> 100	50.2	46.4	85.6	54.1	96.5	15.6	17.4	51.5	30.2	28.1	22.2	20.3	26.7	24.2	29.6
Cn1c(=O)nc2n(-c3ccc(Cl)c(C(F)(F)F)c3)c3ccccc3nc-2c1=O	49.9	26.9	> 100	> 100	> 100	> 100	> 100	> 100	> 79.4	> 100	–	–	–	–	–	–	–	–	–	–
O=C1c2cccc3cccc(c23)C(=O)N1O	> 100	> 100	> 100	> 100	> 100	> 100	> 100	> 100	> 100	> 100	–	–	–	–	–	–	–	–	–	–
COc1ccc(C2=C(N3CCc4ccccc43)C(=O)NC2=O)cc1	> 25	> 25	> 25	> 25	> 25	> 25	> 25	> 25	> 25	> 25	> 25	> 21.6	> 25	> 25	> 25	> 25	> 22.9	> 25	> 25	> 24.2
CCn1c(-c2nonc2N)nc2ccncc21	> 25	> 25	> 25	> 25	> 25	> 25	> 25	> 25	> 25	> 25	> 25	> 25	> 25	> 25	> 25	> 25	> 25	> 25	> 25	> 25
c1ccc2[nH]c(CNc3ccc(C4C[Se]N=N4)cc3)nc2c1 (stereo not given)	> 100	46.4	> 100	> 100	> 100	> 100	81.3	92.3	> 100	> 100	–	–	–	–	–	–	–	–	–	–
COc1ccc(C2Oc3c(c(O)cc4c3[C@H](c3ccc(O)cc3O)[C@H](O)C(c3ccc(O)c(O)c3)O4)C[C@@H]2O)cc1O (stereo not given in full)	> 100	> 100	> 100	> 100	> 100	> 100	> 100	> 100	> 100	> 100	–	–	–	–	–	–	–	–	–	–
